These results are taken from paper PMC4663552, “Identification of Antiviral Agents Targeting Hepatitis B Virus Promoter from Extracts of Indonesian Marine Organisms by a Novel Cell-Based Screening Assay” (Marine Drugs, 2015).

As usually defined, the IC50 is the concentration that gives 50% inhibition. Lower therefore signals greater potency in that assay. Broadly, the EC50 is the midpoint of the concentration-response curve. What is called CC50 is the concentration giving 50% cytotoxicity.

For data set [1], the system named is HBV core promoter. The data set is described as follows: Cell-based HBV core promoter assay (luciferase reporter, Huh7 GL4.18 CURS_BC_AeUS cells). The conditions noted are these: Hepatitis B virus, Huh-7, 48 h incubation. The method, then: Huh7 GL4.18 CURS_BC_AeUS cells were seeded at 2 × 10^4 cells per well in a 48-well plate and then treated with 25 µg/mL each extracts 24 h after seeding cells. The treated cells were harvested 48 h post-treatment and then lysed with Cell culture lysis buffer (Promega, Madison, WI, USA). Luciferase activity was measured by using Luciferase assay systems (Promega, Madison, WI, USA). The resulting luminescence was detected as described above.

Data set [2] has as its system Tie2 kinase. On the set-up: method as in PMID 15653332. As to conditions: cited from earlier work.
Data set [3] deals with HBV. The data set is described as follows: Anti HBV activity in HepG2.2.15.7 cells (supernatant HBV DNA, real-time qPCR). The data set is classed as cell-based, Hepatitis B virus. As to conditions: for EC50: Hepatitis B virus, read-out: EC50 (inhibition of the HBV viral DNA release). Here is the method:
(§1) HepG2.2.15.7 cells were seeded at 1 × 10^4 cells per well in a collagen coated 96-well plate (Corning, Corning, NY, USA) and incubated at 37 °C for 24 h before treatment. The tested compound was added to the culture medium at the indicated concentrations. The culture medium was exchanged every 3 days for fresh medium containing the compound. The treated cells and culture supernatants were harvested 9 days post-treatment and were subjected to MTS assay and estimation of HBV DNA, respectively. The culture supernatant was mixed with an equal volume of Sidestep lysis and stabilization buffer (Agilent Technologies, Santa Clara, CA, USA). The viral DNA included in the mixture was estimated by real-time quantitative PCR using the THUNDERBIRD Probe qPCR Mix (TOYOBO, Osaka, Japan). The forward and reverse primers targeting HBV surface region are 5′-[…]-3′ and 5′-[…]-3′, respectively. The fluorogenic probe was 5′-FAM-[…]-TAMRA-3 [40].
Background: Quantitative PCR measures a nucleic acid by following its amplification.

Data set [4] relates to MCF-7 cells. On the set-up: method as in PMID 18198840. As to conditions: MCF-7 cells (a breast cancer cell line); cited from earlier work.
Data set [5] can be described thus: Cytotoxicity in HepG2.2.15.7 cells (MTS assay). It is filed as cell-based. The conditions noted are these: human, 9 days post-treatment, read-out: CC50 (reduction of cell viability). Here is the method:
as §1

Setting [6] is: 216 h, HepG2.2.15.7 cells, 9 days post-treatment, supernatant HBV DNA.

Molecules are shown by their SMILES. Like-named read-outs stand apart in the source and are kept apart here.

In turn, `Oc1cc(Br)cc(Br)c1Oc1ccc(Br)cc1Br` [Compound 1, 3,5-dibromo-2-(2,4-dibromophenoxy)-phenol] displayed an IC50 in data set [1] of 2300 nM. For the same compound, the “Effect on Tie2 kinase activity” value in data set [2] was “suppressed activity of Tie2 kinase”. The “Selectivity Index (CC50/EC50)” value in data set [3] (HepG2.2.15.7 cells) is on record as 18.2. For the same compound, the EC50 in data set [3] (setting [6]) was 230 ± 70 nM. In addition, the “Effect on cell cycle” value in data set [4] is “induces G1 phase cell cycle arrest”. Also, the CC50 at 9 days in data set [5] worked out at 4190 ± 120 nM.
In turn, `Oc1cc(Br)c(Br)c(Br)c1Oc1ccc(Br)cc1Br` [Compound 2, 3,4,5-tribromo-2-(2,4-dibromophenoxy)-phenol] had an IC50 in data set [1] of 4900 nM. For the same compound, the “Selectivity Index (CC50/EC50)” value in data set [3] (HepG2.2.15.7 cells) came to 12.8. The EC50 in data set [3] (setting [6]) came out at 800 ± 340 nM. The CC50 at 9 days in data set [5] was 10300 ± 3690 nM.
For the compound `C=C1[C@H](CO)[C@@H](O)C[C@@H]1n1cnc2c(=O)[nH]c(N)nc21` [Entecavir, reference compound], in data set [3] (HepG2.2.15.7 cells), the “Selectivity Index (CC50/EC50)” value was more than 4761. Besides, the EC50 in data set [3] (HepG2.2.15.7, 216 h) came to 21 ± 3 nM. Besides, the CC50 at 9 days in data set [5] was more than 100000 nM.
